Values quoted from earlier work in US10912819B2, “Neuroprotective peptides derived from activity-dependent neuroprotective protein for treatment of neurological diseases” (priority 2016, dated 2021).
Like-named read-outs stand apart in the source and are kept apart here.

What was measured:
cornea = conditions: Kusano et al. 2010; cited from earlier work
[1] = not told; cited from earlier work
[2] = ambient temperatures and atmospheric pressures, cited from earlier work
rabbits = conditions: cited from earlier work

Compound | effect on cell survival (cornea) | effect on corneal permeability (cornea) | extent of permeation increase by preservative [1] | permeation in vitro in the presence of preservatives [1] | period of stability ([2]; Anhydrous) | period of stability ([2]; Hemihydrate) | skin irritation (rabbits; rabbit skin, 24 hour exposure) | signs of toxicity (rabbits; rabbit, in vivo, 2000 mg/kg) | acute dermal LD50 (rabbits; rabbits) | mortality (rabbits; single dermal application of 2000 mg/kg)
benzalkonium chloride | adversely affected cell survival | affect corneal permeability | – | – | – | – | – | – | – | –
NC(=O)CC[C@@H]1NC(=O)[C@H](Cc2ccccc2)NC(=O)[C@H](Cc2ccc(O)cc2)NC(=O)CCSSC[C@@H](C(=O)N2CCC[C@H]2C(=O)N[C@H](CCCN=C(N)N)C(=O)NCC(N)=O)NC(=O)[C@H](CC(N)=O)NC1=O [DDAVP, desmopressin acetate] | – | – | chlorobutanol<benzalkonium<sorbate | always increased | – | – | – | – | – | –
CC(C)(O)C(Cl)(Cl)Cl [chlorobutanol, trichloro-2-methyl-2-propanol] | – | not chlorobutanol affect corneal permeability | – | – | 3 years | 5 years | Non-irritant | no signs of toxicity | greater than 2000 mg/kg | 10%
